Source: patent US20170196913A1, “ENHANCEMENT OF GLUCOSE-STIMULATED INSULIN SECRETION BY CELLS THROUGH INDUCTION OF CELLULAR SENESCENCE” (YISSUM RESEARCH DEVELOPMENT COMPANY OF THE HEBREW …, priority 2016, published 2017)

Key:
Format in all cases: cell-based, human
[1] = system: EndoC-βH2 cells; experiment: Mitochondrial activity (membrane potential) by TMRE staining, FACS, of Cre-infected EndoC-βH2 cells; details: EndoC-βH2 cells three weeks after Cre infection
[2] = system: EndoC-βH2 cells; experiment: Glucose stimulated insulin secretion (GSIS) of Cre-infected EndoC-βH2 cells, ELISA; parameters: GSIS (insulin levels secreted): dose or concentration left out as unconfirmed; details: EndoC-βH2 cells infected with Cre, versus vehicle
[3] = system: EndoC-βH2 cells; experiment: Cell size (FSC) by FACS of Cre-infected EndoC-βH2 cells; details: EndoC-βH2 cells three weeks after Cre infection, 250 nM Torin1 versus vehicle

Row | SMILES | mitochondrial activity (TMRE staining) ([1]; 250 nM Torin1 versus vehicle) | levels of insulin secretion ([2]; 250 nM Torin1 starting 3 days after infection, for 3 weeks, low glucose 2.8 mM then high glucose 16.7 mM for 1 hour) | cell size (FSC) [3] | mitochondrial activity (TMRE staining) ([1]; GW9662 50 mM twice a week, versus vehicle) | GSIS (insulin levels secreted) ([2]; GW9662 twice a week for 3 weeks)
1 | CCC(=O)N1CCN(c2ccc(-n3c(=O)ccc4cnc5ccc(-c6cnc7ccccc7c6)cc5c43)cc2C(F)(F)F)CC1 [Torin1] | reduced | lower levels of insulin secretion | reduced size |  | 
2 | O=C(Nc1ccccc1)c1cc([N+](=O)[O-])ccc1Cl [GW9662] |  |  |  | reduced | reduced GSIS
